Reference: the NIST ThermoML archive (doi:10.1021/je800312g)
Several values for one entry are separate records, joined by “and”; a condition that tells them apart may be missing. Equal entries are not always repeated. ± gives the expanded uncertainty stated by the source.

Conditions: Fluid (supercritical or subcritical phases), Impulsive stimulated scattering

N [ammonia]
Conditions	speed of sound
297 K, 620000 kPa	2741 ± 12 m/s
297 K, 700000 kPa	2836 ± 12 m/s
297 K, 780000 kPa	2942 ± 12 m/s and 2932 ± 12 m/s
297 K, 880000 kPa	3023 ± 12 m/s
297 K, 970000 kPa	3113 ± 13 m/s
298 K, 370000 kPa	2376 ± 11 m/s
298 K, 740000 kPa	2903 ± 12 m/s
474 K, 1430000 kPa	3280 ± 13 m/s
476 K, 1550000 kPa	3375 ± 14 m/s
476 K, 2200000 kPa	3788 ± 15 m/s
477 K, 1090000 kPa	2954 ± 12 m/s
479 K, 2220000 kPa	3797 ± 18 m/s
678 K, 2920000 kPa	4000 ± 16 m/s
678 K, 3080000 kPa	4072 ± 16 m/s
678 K, 3140000 kPa	4103 ± 17 m/s
679 K, 1480000 kPa	3084 ± 13 m/s
679 K, 2440000 kPa	3740 ± 15 m/s
679 K, 3750000 kPa	4342 ± 17 m/s
680 K, 1350000 kPa	2982 ± 12 m/s and 2970 ± 12 m/s
